According to patent US11959104B2, “Methods of differentiating stem cell-derived ectodermal lineage precursors” (MEMORIAL SLOAN-KETTERING CANCER CENTER, priority 2016, dated 2024):
Entries after “also recorded” stand apart in the source; their conditions may differ. Read-outs that look alike come from different tables or passages of the source. Ends that are not written are not given here.

What was measured:
[1] = tested on: hPSC-derived cranial placode; assay: Pituitary placode induction, day 15 (qRT-PCR, immunofluorescence); assay type: cell-based; conditions: for induction of anterior pituitary genes / lineage markers: from day 4, day 15 analysis
Procedure: For pituitary differentiation cells were plated at 250 000 cells/cm^2 on VTN-N coated dishes (differentiation works best in 24 well plates) in E8+10 μM Y-27632. After 24 h (day 0) medium was changed to E6 supplemented with 10 μM SB431542 and 5 ng/ml BMP4 (R&D Systems). Medium was changed every day. On day 3 BMP4 was removed from the medium and cells were cultured for 1 day in E6+10 μM SB431542. For the standard differentiation conditions, on day 4 E6 was supplemented with 10 μM SB431542, 200 ng/ml SHH (R&D Systems, C25II), 100 ng/ml FGF8b (R&D Systems) and 50 ng/ml FGF10 (Peprotech Inc.). For some experiments SHH was replaced by 1 μM purmorphamine (Stemgent) or 1 μM SAG (Stemcell Technologies). From now on medium volume was doubled and cells were feed every other day until day 15. On day 15 of differentiation SIX1 H2B::GFP^+ cells were sorted using a BDFACS Aria III cell sorter. Purified cells were then plated as droplets (50 000 cells/10 μl drop) in E6 supplemented with 10 Y-27632, 200 ng/ml SHH, 100 ng/ml FGF8b and 50 ng/ml FGF10 on polyornithine/laminin/fibronectin-coated plates. After 24 h medium was changed to E6 containing SHH, FGF8 and FGF10 until day 30. Medium was changed every other day. For some experiments pituitary induction was started slightly later (day 6) or cells were differentiated in medium conditioned by hypothalamic neuroectoderm from either day 4 or day 6 on. For the co-culture experiment SIX1 H2B::GFP positive cells were sorted on day 6 and 50 000 cells/cm^2 were plated directly on hypothalamic neuroectodermal cells in E6 only supplemented with 10 SB431542.
Total RNA was extracted from at least 3 independent experiments using the TRIzol (Fisher Scientific) reagent in combination with Phase-lock tubes (5Prime) according to the manufactures protocol. 1 μg of total RNA was reverse transcribed into cDNA using iScript (BioRad). For quantitative RT PCR we used the SSoFast EvaGreen Mix (BioRad) in combination with QuantiTect primer assays (Qiagen) on a BioRad CFX96 Thermal Cycler. All reactions were run according to the manufacturer's protocol. Results are calculated using the ΔΔCt method (Livak and Schmittgen, 2001).
After washing the cells once with PBS, cells were fixed with 4% (v/v) paraformaldehyde for 20 min, washed twice with PBS, permeabilized using 0.1% (v/v) Triton X-100 in PBS, Cells were blocked with 10% (v/v) FCS in PBS for 1-5 h at room temperature. Cells were incubated with primary antibodies diluted in 2% FCS (v/v) in PBS at 4° C. overnight. A list of the primary antibodies used in this study is provided as FIG. 28. […] After and additional 2 washing steps, fluorescence images of the cells were taken using an Olympus IX71 inverted microscope equipped with a Hamamatsu ORCA CCD camera.

[2] = tested on: hPSC-derived pituitary cells; assay: Stimulation of hormone release in vitro (ELISA); assay type: cell-based, human; conditions: day 30 of differentiation
Procedure: To stimulate hormone release in vitro, cells were differentiated in 24 well plates as described above. On day 30 of differentiation cells were washed once with PBS and 250 μl of fresh medium containing either the solvent or the stimulant were added to each well. After 12 h the supernatant was removed and centrifuged for 5 min at 2000 g to pellet debris. Supernatant was transferred into fresh reaction tubes, flash frozen and stored at −80° C. until ELISA measurements. Stimulants used were: CRF (Tocris, 1 μM), Stressin I (Tocris, 2 μM), Ghrelin (Tocris, 1 μM), Somatocrinin (Accurate Chemical, 1 μg/ml), Nafarelin (Tocris, 1 μM) and Urocortin (Tocris, 500 nM).
Hormone concentration in the supernatant of cells or in animal serum was analyzed using ELISA measurements. Hormone concentration in the cell culture supernatant was assessed using traditional single hormone ELISA Kits according to the manufactures manual. ACTH (Calbiotech, detects rat and human ACTH), hGH (R&D Systems, human specific), FSH (Calbiotech, FSH (lumELISA, human specific) and corticosterone (Abcam). Plates were read using an EnSpire Multimode plate reader (PerkinElmer). Hormone concentration in in vivo samples was analyzed using either traditional ELISA (for ACTH only, serum diluted 1:2) or species specific (human or rat) Milliplex multiplex ELISA using Luminex technology (Millipore). Magnetic bead-based sandwich immunoassay was performed according to the manufactures manual. 25 μl of undiluted serum samples in duplicate wells were analyzed by Luminex FlexMap 3D (Luminex Corp, Austin, TX). Cytokine concentrations were determined by Luminex Xponent 4.1 and EMD-Millipore Milliplex Analyst v5.1 using 5-p log analysis.

[3] = tested on: Six1::H2B-GFP reporter line; assay: LOPAC small molecule screen and validation for enhanced CP induction
Procedure: All differentiations starting from E8 were dissociated into single cells using EDTA and replated at high density in E8 with the ROCK inhibitor (Tocris). Cells were typically seeded at a density of 200,000 cells/cm^2 on Matrigel coated dishes. Switching from E8 to E6 triggered differentiations (i.e. d0). Neuroectoderm (NE) formation was generated by culturing the cells in E6 with 10 nM SB and 500 nM LDN until d12. Neural Crest (NC) was first treated with 10 nM SB, 600 nM CHIR and 1 ng/ml BMP4 from d0-d2. […] Lens placode was first treated with 10 nM SB and 5 ng/ml BMP4 from d0-d2. At d2, cells were maintained in 10 nM SB with 100 ng/ml FGF2 until d12. Trigeminal placode was first treated with 10 nM SB and 5 ng/ml BMP4 from d0-d2. At d2, CHIR was added to the SB and BMP4 until d4. Finally, non-neural ectoderm (NNE) was treated with 10 nM SB, 10 nM SU5402 and 20 ng/ml BMP4 until d12.

hPSCs = assay: Toxicity of KSR-protocol small molecule concentrations in E6 differentiation; assay type: cell-based, human; conditions: original KSR-protocol concentration used in E6
Excerpt: To transition these protocols into the more defined E6 media, we adapted hPSCs in E8 for multiple passages and simply replaced the KSR-based medium with an E6 based differentiation while maintaining factors and concentrations as described previously to trigger the 4 major ectodermal lineages (FIG. 9A). […] After determining an optimal non-toxic concentration for each of the small molecules we observed that NE formation under E6 conditions was equivalent to that obtained with KSR-based conditions. […] We compared the efficiency of generating PAX6 positive cells using either no small molecules, using dSMADi or using the single TGFβ inhibitor SB431542 (SB). We found robust PAX6 expression in the absence of dSMADi (˜40% of total cells on day 12 post induction). However, the percentage of cells expressing PAX6 was further improved upon addition of SB or dSMADi to nearly 90% and 80%, respectively (FIGS. 1E and 9B).

hPSC [4] = assay: BMP dose response for TFAP2A, NNE and CP induction in E6 media; assay type: cell-based, human
Procedure: (§1) All differentiations starting from E8 were dissociated into single cells using EDTA and replated at high density in E8 with the ROCK inhibitor (Tocris). Cells were typically seeded at a density of 200,000 cells/cm^2 on Matrigel coated dishes. Switching from E8 to E6 triggered differentiations (i.e. d0). Neuroectoderm (NE) formation was generated by culturing the cells in E6 with […] and 500 nM LDN until d12. Neural Crest (NC) was first treated with […], 600 nM CHIR and 1 ng/ml BMP4 from d0-d2. At d2, cells were maintained in […] with 1.5 uM CHIR until d12. Lens placode was first treated with […] and 5 ng/ml BMP4 from d0-d2. At d2, cells were maintained in […] with 100 ng/ml FGF2 until d12. Trigeminal placode was first treated with […] and 5 ng/ml BMP4 from d0-d2. At d2, CHIR was added to the SB and BMP4 until d4. Finally, non-neural ectoderm (NNE) was treated with 10 nM SB, 10 nM SU5402 and 20 ng/ml BMP4 until d12.

hPSC [5] = assay: Neural crest induction, SOX10 positive cells; assay type: cell-based, human
Procedure: as §1

[6] = three-day pulse with SB431542, dose-response

In the case of `CNC1CCC(N(Cc2cccc(-c3ccncc3)c2)C(=O)c2sc3ccccc3c2Cl)CC1` (centres unmarked) [SAG], the “induction of anterior pituitary genes / lineage markers” value [1] is reported as “robust induction of anterior pituitary-lineage markers” and the cell death ([1]; small-molecule-based induction replacing SHH) is reported as “increase in cell death”.

“Somatocrinin: stimulant of hormone release (Accurate Chemical, 1 μg/ml) (YADAIFTNSYRKVLGQLSARKLLQDIMSRQQGESNQERGARARL; ends and bridges not checked; UniProt P01286 32-75, looked up)” was tested, and the GH release [2] was “induced”, the ACTH release ([2]; listed as somatocrinin) was “did not trigger ACTH release” and the GH release ([2]; listed as somatocrinin) was “triggered robust increase in GH release”.

For “CRF: stimulant of hormone release (Tocris, 1 μM) (SEEPPISLDLTFHLLREVLEMARAEQLAQQAHSNRKLMEII; ends and bridges not checked; UniProt P06850 154-194, looked up)”, the ACTH release [2] was “induced release of ACTH; also recorded: specifically induced”.

`c1ccc2c(Oc3nc(Nc4ccc(N5CCOCC5)cc4)c4ncn(C5CCCCC5)c4n3)cccc2c1` [purmorphamine] was tested, and the cell death [1] was “increase in cell death” and the “induction of anterior pituitary genes / lineage markers” value [1] was “robust induction of anterior pituitary-lineage markers”.

“Urocortin: stimulant of hormone release (Tocris, 500 nM) (DNPSLSIDLTFHLLRTLLELARTQSQRERAEQNRIIFDSV; ends and bridges not checked; UniProt P55089 83-122, looked up)” was tested, and the ACTH release [2] was “specifically induced” and the ACTH release ([2]; listed as urocortin) was “induced release of ACTH”.

For `c1cnc2c(c1)ccc1cccnc12` [Phenantroline], the “percentage of cells expressing Six1 (hit validation)” value ([3]; CP protocol) was “confirmed to reliably enhance the percentage of cells expressing Six1”, the Six1 positive cells ([3]; CP protocol in the absence of FGF2, control 18%) was 69% and the “expression of Six1 versus control differentiations (primary screen hit)” value ([3]; LOPAC screen, CP protocol) was “increased expression of SIX1”. For the same molecule, the “fold increase of Six1 positive cells” value ([3]; absence of FGF2, 69% versus 18%) was roughly 4 fold, the “expression of other lineage markers such as Sox10, T, MyoD or Sox17” value ([3]; differentiation towards CP) was “without inducing the expression of other lineage markers” and the “increase in Six1 expression over controls” value ([3]; differentiation towards CP) was “five-fold”.

In the case of `Cc1c[nH]c(/C=C2\C(=O)Nc3ccccc32)c1CCC(=O)O` [SU5402, 2-[(1,2-Dihydro-2-oxo-3H-indol-3-ylidene)methyl]-4-methyl-1H-pyrrole-3-pr-opanoic acid], the “cell killing during differentiation” value (hPSCs) is reported as “effectively killed the cells”.

In the case of “Ghrelin: stimulant of hormone release (Tocris, 1 μM) (GSSFLSPEHQRVQQRKESKKPPAKLQPR; also: octanoylated, site not given here; UniProt Q9UBU3 24-51, looked up)”, the ACTH release [2] is reported as “did not trigger ACTH release”.

B1: BMP4: activator of BMP signaling (protein, UniProt P12644 293-408, looked up)
Bone morphogenetic protein 4: SPKHHSQRARKKNKNCRRHSLYVDFSDVGWNDWIVAPPGYQAFYCHGDCPFPLADHLNSTNHAIVQTLVNSVNSSIPKACCVPTELSAISMLYLDEYDKVVLKNYQEMVVEGCGCR
B1 was tested, and the “BMP4 concentration optimal for CP induction” value (hPSC [4]; [6]) was “around 5 ng/ml”, the “SOX10 positive NC population generated” value (hPSC [5]; short pulse of BMP4 (1 ng/ml) with Wnt activation and SB431542) was “nearly homogenous SOX10 positive NC population” and the “BMP4 concentration giving strong NC induction” value (hPSC [5]; [6]) was “around 1 ng/ml”.

B2: BMP: BMP signaling activator used in E6 media, BMP4 per methods (protein, UniProt P12644 293-408, looked up)
Bone morphogenetic protein 4: B1 Bone morphogenetic protein 4
B2 was tested, and the “marker phenotype at high BMP (NNE)” value (hPSC [4]; 20 ng/ml BMP) was “cells become TFAP2A positive and lack the expression of SOX10 and SIX1” and the TFAP2A expression (hPSC [4]; within three days, with SB431542 in E6 media, dose dependent) was “rapidly upregulated”.
